Measurements reported in US12433892B2, “Compositions and methods of treatment for neurological disorders comprising depression” (Gliapharm SA, priority 2018, dated 2025).
Where a name gives a salt, the structure may show the parent alone.

Legend:
astrocytes [1] = experiment: Intracellular glycogen quantification; assay type: cell-based, mouse; conditions: Prestwick hits; 10 uM, 3 h
Procedure: For glycogen dosage, a protein dosage was first performed in order to assess whether harvested astrocytes from primary cell cultures yielded enough and equivalent amounts of proteins comparing each replicate, and to ensure that the obtained differences in glycogen quantities were due to drug action and not to inner protein quantities.
Astrocytes used for these dosages were previously grown in 6-well plates for 17 days and stimulated with Vehicle (DMSO) or drug of interest (1 μM to 100 μM) for 180 min, at 37° C. 5% CO2/95% air in D5030 complete medium. Medium was removed and replaced with 600 μl of 30 mM Tris HCl, and stored at −20° C.
Proteins were dosed using the micro BCA Protein Assay kit (Thermo Scientific), as described in the manufacturer's instructions. Briefly, thawed cells were sonicated and 5 μl aliquots were placed in a transparent 96-well plate, to which we added 25 μl 30 mM Tris HCl, 70 μl H2O and 100 μl of a BCA mix (made as described in manufacturer's guidelines). After a 120 min-incubation at 37° C., absorbance was measured with Safire 2 spectrophotometer at a wavelength of 562 nm, and protein quantities were determined from a standard curve of Bovine Serum Albumin (BSA).
Glycogen was quantified using a 250 μl-aliquot of the same stimulated, thawed, and sonicated cells. After an incubation period of 30 min at 90° C. and 400 rpm, 28 μl of an acetic acid/sodium acetate (both from Sigma) 0.1M pH 4.6 buffer was added to each aliquot, which was then separated in two. Each split aliquot received whether 5 μl of amyloglucosidase (Roche) or 5 μl H2O, and all cell solutions were incubated for 120 min in a shaking 37° C.-waterbath. After a centrifugation at 16'000 G for 5 min, 20 μl of supernatant were placed 96-well plate, to which 150 μl of a mix containing 0.67 mM ATP (Roche), 0.67 mM NADP (Roche), 1.8% hexokinase/glucose-6-phosphate dehydrogenase (Roche) and 0.1M Tris Buffer-HCl/3.3 mM magnesium (Fluka)/pH 8.1 buffer was added. Fluorescence was measured with Safire 2 spectrophotometer (340 nm excitation/440 nm emission). Glycogen concentration was obtained by subtracting glucose value of samples with amyloglucosidase to samples without amyloglucosidase, and were expressed relative to the amount of proteins previously determined.
Levels of intracellular glycogen in astrocytes were measured at 3 h after stimulation with 20 hits from the Prestwick library (10 μM each), as shown in FIG. 2. n=6-10; Ctrl pos. is glutamate (0.5 mM). Statistical analysis consisted in ANOVA followed by Fisher LSD post-hoc test for pair-wise comparisons.
(§1) Statistical analysis consisted in ANOVA followed by Fisher LSD post-hoc test for pair-wise comparisons.

astrocytes [2] = experiment: Extracellular lactate quantification; assay type: cell-based, mouse; set-up: Score_LACTATE / Score Lact.: scale not given here; conditions: Appendix II; for EC50: Mus musculus, Astrocyte, lactate secretion
Procedure: Primary cultures of cerebrocortical astrocytes were obtained from 1-2-day-old OF1 mouse pups (Charles River Laboratories). Briefly, cortices were isolated and minced in small pieces under a dissecting microscope. The cells were incubated for 30 min at 37° C. in a solution containing 20 U/ml of papain enzyme (Worthington Biochemical), L-cysteine 1 mM (Sigma), and 10 kU/ml DNase I (Worthington Biochemical) for an enzymatic dissociation. Papain activity was stopped by the addition of fetal calf serum (FCS) to the solution, and a single-cell suspension was then obtained by mechanical dissociation, which consisted in cells trituration in a DMEM (D7777, Sigma-Aldrich) medium (supplemented with 44 mm NaHCO3, and 10 ml/L antibiotic/antimycotic solution) containing 10% FCS. The cells were seeded at an average density of 6×10^4 cells/cm^2 in poly-D-lysine-coated 96, 12 or 6-well culture plates, depending on their use, and incubated at 37° C. in a humidified atmosphere containing 5% CO2/95% air. Culture medium was renewed twice per week. Cells were stimulated and harvested between DIV14 and DIV17, when confluence and cell growth were optimal.
Secretion of L-lactate was determined in the extracellular medium of 96-well plated astrocytes after 90 min stimulation (at 37° C., in 5% CO2/95% air conditions) with the drug of interest. The stimulation medium was composed of D5030 medium (completed with D-glucose 5 mM and 44 mM sodium bicarbonate) for 90 min in concentrations ranging from 0 to 100 μM.
Briefly, 200 μl of a Glycine (Sigma)-Semicarbazide (Acros) 0.2M pH 10 buffer containing 3 mM NAD (Roche) and LDH 14 U/ml (Roche) was added to each well of a 96-well plate containing 30 μl aliquots complemented with 20 μl fresh complete D5030 medium. Samples were incubated at 37° C. for 1 h. After samples cooled down at room temperature, the fluorescence intensity (340 nm excitation/450 nm emission) that represents the amount of NADH produced was measured, and lactate concentration values were determined from a standard curve of L-lactate.
as §1
Levels of lactate secreted by astrocytes were measured in the extracellular medium at 90 min after stimulation with hits (molecules) from the CDC54K library.

| EC50 (astrocytes [2]) | Structure (SMILES) | Glycogen (statistical significance of glycogen degradation) (astrocytes [1]) | Score Lact. (astrocytes [2]) |
| --- | --- | --- | --- |
|  | CC[N+](CC)(CC(=O)Nc1c(C)cccc1C)Cc1ccccc1 [Denatonium benzoate] | ** (**p<0.01) |  |
|  | Clc1ccc2c(c1)CCc1cccnc1C2=C1CCNCC1 [Desloratadine] | * (*p<0.05) |  |
|  | CCCCOc1cc(C(=O)NCCN(CC)CC)c2ccccc2n1 [Dibucaine] | * (*p<0.05) |  |
| 5.87 µM | Cc1cccc(NS(=O)(=O)c2ccc(Cl)c(Cl)c2)c1 [F3394-1364] |  | 0.33 |
|  | FC(F)(F)c1cccc(CNc2ncnc3[nH]ncc23)c1 [F5285-0069] |  | 0.36 |
|  | CCc1ccc(S(=O)(=O)Nc2cc3c(cc2C)n(C)c(=O)n3C)cc1 [G433-0293] |  | 0.74 |
|  | COc1ccc(NS(=O)(=O)c2ccc(N3CCCCS3(=O)=O)cc2)cc1 [G508-0015] |  | 0.67 |
| 4.26 µM | CCNc1cc(C)nc(Nc2ccc(NC(=O)Cc3ccccc3)cc2)c1 [G869-0064] |  | 0.54 |
|  | CCNc1cc(C)nc(Nc2ccc(NC(=O)c3cccs3)cc2)n1 [G869-0071] |  | 0.63 |
|  | CC(COc1ccccc1)NC(C)C(O)c1ccc(O)cc1 (stereo not drawn) [Isoxsuprine hydrochloride] | ** (**p<0.01) |  |
|  | CC(=O)N1CC(C)(C)c2cc(S(=O)(=O)Nc3ccc(F)cc3C)ccc21 [L302-0181] |  | 0.52 |
|  | Cn1c(=O)c(N2CCC(NC(=O)Nc3cccc(Cl)c3)CC2)nc2ccccc21 [L932-0267] |  | 0.53 |
|  | CCc1ccc(NS(=O)(=O)c2c(C)c(-c3nnc(C4CC4)o3)n(C)c2C)cc1 [M950-1515] |  | 0.67 |
|  | CC(C)[N+](C)(CCOC(=O)C1c2ccccc2Oc2ccccc21)C(C)C [Propantheline bromide] | **** (****p<0.0001) |  |
|  | Cc1cc(/C=C/c2ccc3cc(N(C)C)ccc3[n+]2C)c(C)n1-c1ccccc1 [Pyrvinium pamoate] | **** (****p<0.0001) |  |
|  | CCOc1ccc(C2(O)C(C)[N+]3=C(CCC3)N2c2ccc(OC)cc2)cc1.[Br-] (stereo not drawn) [T0500-6629] |  | 0.61 |
|  | N#Cc1cc(C(=O)c2cc(F)ccc2O)cn(-c2ccc(F)c(Cl)c2)c1=O [T0516-6894] |  | 0.38 |
| 3.84 µM | Cc1sc2nc(CNc3nc4ccccc4c(=O)n3C)[nH]c(=O)c2c1C [T0517-2783] |  | 0.46 |
|  | COc1ccc(NS(=O)(=O)c2cccc(NC(=O)c3cccs3)c2)cc1 [T0517-4117] |  | 0.91 |
| 6.84 µM | O=c1[nH]nc(NCCOc2ccc(Br)cc2)n1C1CC1 [T533260] |  | 0.53 |
|  | COc1ccc(NS(=O)(=O)c2cccc(NC(=O)c3ccccc3)c2)cc1 [T5274959] |  | 0.68 |
| 6.02 µM | CC(C)S(=O)(=O)c1ccc(NS(=O)(=O)c2ccc(Cl)cc2)cc1 [T5311200] |  | 0.56 |

| EC50 (astrocytes [2]) | Structure (SMILES) | Glycogen (statistical significance of glycogen degradation) (astrocytes [1]) | Score Lact. (astrocytes [2]) |
| --- | --- | --- | --- |
|  | CCC(C)NS(=O)(=O)c1ccc(Oc2ccc(C)cc2)cc1 (stereo not drawn) [T5400234] |  | 0.33 |
|  | O=C(Nc1ccc(F)c(F)c1)c1ccc(Cl)c(S(=O)(=O)N2CCCC2)c1 [T5450239] |  | 0.67 |
| 5.36 µM | CCN(CC)S(=O)(=O)c1ccc(S(=O)(=O)Nc2ccc(C)cc2C)cc1 [T5453923] |  | 0.66 |
|  | CCn1c(=O)c(C)nc2cc(C(=O)N(Cc3ccc(F)cc3)C3CC3)ccc21 [T5586091] |  | 0.45 |
| 4.61 µM | Cc1nc2ccc(NC(=O)c3ccc4c(c3)CC(C)N4S(C)(=O)=O)cc2[nH]1 (stereo not drawn) [T5606387] |  | 0.38 |
|  | N#Cc1ccc(S(=O)(=O)Nc2ccccc2C(=O)NCc2ccccc2)cc1 [T5673322] |  | 0.63 |
|  | CCCC(=O)Nc1nc(-c2ccc3c(c2)CCO3)cs1 [T5691896] |  | 0.38 |
| 1.59 µM | Cc1ccc(-c2c[nH]c(NC(=O)c3ccncc3)n2)cc1[N+](=O)O [T5694329] |  | 0.47 |
|  | COc1ccc(C(C)NC(=O)c2cc(=O)c3ccccc3o2)cc1F (stereo not drawn) [T5710343] |  | 0.67 |
|  | CCc1ccccc1NC(=O)CN(C)c1ncnc2c1oc1ccccc12 [T5712071] |  | 0.8 |
|  | Cc1sc2nc(CSc3nc4ccccc4[nH]3)nc(N)c2c1C [T5719257] |  | 0.74 |
|  | COc1ccccc1NC(=O)CO/N=C(/N)c1cccc(C(F)(F)F)c1 [T5770640] |  | 0.55 |
|  | COc1cc(C)c(NC(=O)Cc2ccc(Cl)c(Cl)c2)cc1OC [T5783794] |  | 0.44 |
|  | c1nc(NCc2ccc3c(c2)OCO3)c2sccc2n1 [T5787526] |  | 0.71 |
|  | CC(=O)Nc1cccc(NC(=O)CSc2nc(C)c(C)n2C2CCCC2)c1 [T5788339] |  | 0.75 |
|  | c1ccc(CN2CCOCC2)c(CNc2ncnc3ccsc23)c1 [T5790476] |  | 0.79 |
|  | COc1cccc(C(CNc2nc(C(F)(F)F)nc3ccccc23)N(C)C)c1 (stereo not drawn) [T5800607] |  | 063 |
|  | CC(C)(C)NS(=O)(=O)c1cccc(C(=O)Nc2ccncc2)c1 [T5827594] |  | 0.71 |
| 5.82 µM | O=C(Nc1cccc([N+](=O)[O-])c1)c1ccc(S(=O)(=O)NCC2CCCO2)cc1 (stereo not drawn) [T6010789] |  | 1.31 |
| 5.5 µM | O=S(=O)(Nc1ccc(F)cc1)c1ccc(F)c(Cl)c1 [T6947848] |  | 0.98 |
|  | Cc1c(C)c2c(c(C)c1O)CCC(C)(COc1ccc(CC3SC(=O)NC3=O)cc1)O2 (stereo not drawn) [Troglitazone] | *** (***p<0.001) |  |
|  | CS(=O)(=O)NC1CCN(C(=O)c2ccc(F)cc2)C1 (stereo not drawn) [Z603-8037] |  | 0.32 |
